Data as given in PubChem BioAssay AID248 (DTP/NCI, 2004).
Several values for one entry are separate records, joined by “and”; a condition that tells them apart may be missing. Identical values can stand only once. Toxic doses and inconclusive results are not listed.

Test system: L1210 leukemia ip in BDF1 mice, survival T/C
Assay: NCI In Vivo Anticancer Drug Screen. Data for tumor model L1210 Leukemia (intraperitoneal) in B6D2F1 (BDF1) mice
Conditions: endpoint: mean survival time, higher = longer survival
Outline: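 In this screen, tumor-bearing mice given compound are compared to those given vehicle, and their survival values are reported as a treated-to-control quotient.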

[1] = dose: 100.0 mg/kg/injection, schedule: Q04DX003 (ip), vehicle: saline
[2] = dose: 200.0 mg/kg/injection, schedule: Q04DX003 (ip), vehicle: saline
[3] = dose: 400.0 mg/kg/injection, schedule: Q04DX003 (ip), vehicle: saline
[4] = dose: 100.0 mg/kg/injection, schedule: Q01DX001 (ip), vehicle: saline
[5] = dose: 200.0 mg/kg/injection, schedule: Q01DX001 (ip), vehicle: saline
[6] = dose: 400.0 mg/kg/injection, schedule: Q01DX001 (ip), vehicle: saline
[7] = dose: 100.0 mg/kg/injection, schedule: Q01DX001 (ip), vehicle: carboxymethylcellulose (CMC)
[8] = dose: 200.0 mg/kg/injection, schedule: Q01DX001 (ip), vehicle: carboxymethylcellulose (CMC)
[9] = dose: 100.0 mg/kg/injection, schedule: Q01DX009 (ip), vehicle: Klucel (hydroxypropylcellulose) (HPC)
[10] = dose: 100.0 mg/kg/injection, schedule: Q04DX003 (ip), vehicle: Klucel (hydroxypropylcellulose) (HPC)
[11] = dose: 200.0 mg/kg/injection, schedule: Q01DX009 (ip), vehicle: Klucel (hydroxypropylcellulose) (HPC)
[12] = dose: 200.0 mg/kg/injection, schedule: Q04DX003 (ip), vehicle: Klucel (hydroxypropylcellulose) (HPC)
[13] = dose: 400.0 mg/kg/injection, schedule: Q01DX009 (ip), vehicle: Klucel (hydroxypropylcellulose) (HPC)
[14] = dose: 400.0 mg/kg/injection, schedule: Q04DX003 (ip), vehicle: Klucel (hydroxypropylcellulose) (HPC)

In the case of `CC1=C(c2ccccc2)OS(=O)(=O)NC1=O`, the T/C [1] is reported as 100 % of control, the T/C [2] is reported as 97 % of control and the T/C [3] is reported as 101 % of control.
`NNc1ccc2c(O)cc(S(=O)(=O)O)cc2c1` was tested, and the T/C [4] was 98 % of control, the T/C [1] was 103 % of control and the T/C [5] was 104 % of control. The T/C [2] was 95 % of control, the T/C [6] was 107 % of control and the T/C [3] was 101 % of control.
In the case of `CN(C)N=Nc1ccccc1`, the T/C (dose: 4.0 mg/kg/injection, schedule: Q03HX008 (ip), vehicle: other) is reported as 102 % of control, the T/C (dose: 4.0 mg/kg/injection, schedule: Q03HX016 (ip), vehicle: other) is reported as 101 % of control and the T/C (dose: 4.0 mg/kg/injection, schedule: Q03HX024 (ip), vehicle: other) is reported as 105 % of control. For the same compound, the T/C (dose: 8.0 mg/kg/injection, schedule: Q03HX008 (ip), vehicle: other) was 103 % of control, the T/C (dose: 8.0 mg/kg/injection, schedule: Q03HX016 (ip), vehicle: other) was 103 % of control and the T/C (dose: 8.0 mg/kg/injection, schedule: Q03HX024 (ip), vehicle: other) was 108 % of control. For the same compound, the T/C (dose: 12.5 mg/kg/injection, schedule: Q04DX003 (ip), vehicle: saline with Tween-80) was 102 % of control, the T/C (dose: 15.0 mg/kg/injection, schedule: Q01DX015 (ip), vehicle: carboxymethylcellulose (CMC)) was 104 % of control and 106 % of control and 107 % of control and the T/C (dose: 16.0 mg/kg/injection, schedule: Q01DX005 (iv), vehicle: other) was 111 % of control. For the same compound, the T/C (dose: 16.0 mg/kg/injection, schedule: Q01DX009 (ip), vehicle: other) was 103 % of control, the T/C (dose: 16.0 mg/kg/injection, schedule: Q01DX009 (sc), vehicle: other) was 107 % of control and the T/C (dose: 16.0 mg/kg/injection, schedule: Q03HX008 (ip), vehicle: other) was 114 % of control. For the same compound, the T/C (dose: 16.0 mg/kg/injection, schedule: Q03HX016 (ip), vehicle: other) was 117 % of control, the T/C (dose: 18.0 mg/kg/injection, schedule: Q01DX015 (ip), vehicle: carboxymethylcellulose (CMC)) was 104 % of control and the T/C (dose: 25.0 mg/kg/injection, schedule: Q04DX003 (ip), vehicle: saline with Tween-80) was 123 % of control. For the same compound, the T/C (dose: 26.0 mg/kg/injection, schedule: Q01DX015 (ip), vehicle: carboxymethylcellulose (CMC)) was 108 % of control, the T/C (dose: 30.0 mg/kg/injection, schedule: Q01DX015 (ip), vehicle: carboxymethylcellulose (CMC)) was 110 % of control and 207 % of control and the T/C (dose: 31.25 mg/kg/injection, schedule: Q01DX001 (ip), vehicle: saline with Tween-80) was 108 % of control. The T/C (dose: 32.0 mg/kg/injection, schedule: Q01DX001 (ip), vehicle: other) was 109 % of control, the T/C (dose: 32.0 mg/kg/injection, schedule: Q01DX001 (sc), vehicle: other) was 102 % of control and the T/C (dose: 32.0 mg/kg/injection, schedule: Q01DX005 (iv), vehicle: other) was 109 % of control. For the same compound, the T/C (dose: 32.0 mg/kg/injection, schedule: Q01DX009 (ip), vehicle: other) was 122 % of control, the T/C (dose: 32.0 mg/kg/injection, schedule: Q01DX009 (sc), vehicle: other) was 114 % of control and the T/C (dose: 32.0 mg/kg/injection, schedule: Q03HX024 (ip), vehicle: other) was 120 % of control. For the same compound, the T/C (dose: 32.0 mg/kg/injection, schedule: Q04DX003 (ip), vehicle: other) was 102 % of control, the T/C (dose: 32.0 mg/kg/injection, schedule: Q04DX003 (ip), vehicle: saline) was 117 % of control and the T/C (dose: 32.0 mg/kg/injection, schedule: Q08DX002 (ip), vehicle: other) was 107 % of control. For the same compound, the T/C (dose: 50.0 mg/kg/injection, schedule: Q01DX001 (ip), vehicle: carboxymethylcellulose (CMC)) was 97 % of control, the T/C (dose: 50.0 mg/kg/injection, schedule: Q04DX003 (ip), vehicle: saline with Tween-80) was 115 % of control and the T/C (dose: 60.0 mg/kg/injection, schedule: Q01DX015 (ip), vehicle: carboxymethylcellulose (CMC)) was 119 % of control and 88 % of control. The T/C (dose: 62.5 mg/kg/injection, schedule: Q01DX001 (ip), vehicle: saline with Tween-80) was 111 % of control, the T/C (dose: 64.0 mg/kg/injection, schedule: Q01DX001 (ip), vehicle: other) was 112 % of control and the T/C (dose: 64.0 mg/kg/injection, schedule: Q01DX001 (sc), vehicle: other) was 102 % of control. The T/C (dose: 64.0 mg/kg/injection, schedule: Q01DX009 (ip), vehicle: other) was 120 % of control, the T/C (dose: 64.0 mg/kg/injection, schedule: Q01DX009 (oral), vehicle: other) was 122 % of control and the T/C (dose: 64.0 mg/kg/injection, schedule: Q04DX003 (ip), vehicle: other) was 114 % of control. The T/C (dose: 64.0 mg/kg/injection, schedule: Q08DX002 (ip), vehicle: other) was 101 % of control, the T/C [7] was 93 % of control and the T/C (dose: 100.0 mg/kg/injection, schedule: Q04DX003 (ip), vehicle: saline with Tween-80) was 105 % of control and 117 % of control. For the same compound, the T/C (dose: 128.0 mg/kg/injection, schedule: Q01DX001 (ip), vehicle: other) was 123 % of control, the T/C (dose: 128.0 mg/kg/injection, schedule: Q01DX001 (oral), vehicle: other) was 109 % of control and the T/C (dose: 128.0 mg/kg/injection, schedule: Q01DX001 (sc), vehicle: other) was 112 % of control. The T/C (dose: 128.0 mg/kg/injection, schedule: Q01DX009 (oral), vehicle: other) was 122 % of control, the T/C [8] was 123 % of control and the T/C (dose: 256.0 mg/kg/injection, schedule: Q01DX001 (sc), vehicle: other) was 121 % of control.
`O=C(O)C(Cc1ccc(O)c([N+](=O)[O-])c1)N1C(=O)c2ccccc2C1=O` (stereo not given) was tested, and the T/C [4] was 101 % of control, the T/C [5] was 95 % of control and the T/C [6] was 95 % of control.
In the case of `CCCCCCCCCC(=O)CCC`, the T/C (dose: 100.0 mg/kg/injection, schedule: Q01DX009 (ip), vehicle: saline) is reported as 100 % of control, the T/C [1] is reported as 111 % of control and the T/C (dose: 200.0 mg/kg/injection, schedule: Q01DX009 (ip), vehicle: saline) is reported as 96 % of control. The T/C [2] was 97 % of control, the T/C (dose: 400.0 mg/kg/injection, schedule: Q01DX009 (ip), vehicle: saline) was 98 % of control and the T/C [3] was 105 % of control.
`CCCCCCCCCCCCCCCCCC(=O)NCCS` was tested, and the T/C (dose: 25.0 mg/kg/injection, schedule: Q04DX002 (ip), vehicle: saline with Tween-80) was 101 % of control, the T/C (dose: 50.0 mg/kg/injection, schedule: Q04DX002 (ip), vehicle: saline with Tween-80) was 89 % of control and the T/C (dose: 100.0 mg/kg/injection, schedule: Q04DX002 (ip), vehicle: saline with Tween-80) was 104 % of control.
`O=C(CCNNC(=O)c1ccncc1)NCc1ccccc1` was tested, and the T/C (dose: 25.0 mg/kg/injection, schedule: Q01DX009 (ip), vehicle: Klucel (hydroxypropylcellulose) (HPC)) was 101 % of control, the T/C (dose: 25.0 mg/kg/injection, schedule: Q04DX003 (ip), vehicle: Klucel (hydroxypropylcellulose) (HPC)) was 101 % of control and the T/C (dose: 50.0 mg/kg/injection, schedule: Q01DX009 (ip), vehicle: Klucel (hydroxypropylcellulose) (HPC)) was 110 % of control. For the same compound, the T/C (dose: 50.0 mg/kg/injection, schedule: Q04DX003 (ip), vehicle: Klucel (hydroxypropylcellulose) (HPC)) was 114 % of control, the T/C [9] was 97 % of control and the T/C [10] was 95 % of control. For the same compound, the T/C [11] was 101 % of control, the T/C [12] was 86 % of control and the T/C [13] was 101 % of control. The T/C [14] was 95 % of control.
`CC(=O)NCc1ccccc1` was tested, and the T/C (dose: 100.0 mg/kg/injection, schedule: Q01DX009 (ip), vehicle: saline with Tween-80) was 97 % of control, the T/C [10] was 95 % of control and the T/C (dose: 200.0 mg/kg/injection, schedule: Q01DX009 (ip), vehicle: saline with Tween-80) was 92 % of control. For the same compound, the T/C [12] was 100 % of control, the T/C (dose: 400.0 mg/kg/injection, schedule: Q01DX009 (ip), vehicle: saline with Tween-80) was 100 % of control and the T/C [14] was 100 % of control.
In the case of `CCOC(=O)C[P+](c1ccc(C)cc1)(c1ccc(C)cc1)c1ccc(C)cc1`, the T/C (dose: 15.0 mg/kg/injection, schedule: Q01DX001 (ip), vehicle: carboxymethylcellulose (CMC)) is reported as 86 % of control.
In the case of `COc1ccc(/C=C/c2cnccn2)cc1OC`, the T/C [9] is reported as 101 % of control, the T/C [11] is reported as 101 % of control and the T/C [13] is reported as 106 % of control.
For `Cc1ccc2cccc3c2c1S(=O)(=O)c1cccc2cccc(c12)C3`, the T/C [4] was 98 % of control, the T/C [5] was 104 % of control and the T/C [6] was 93 % of control.
In the case of `Cc1c(Cl)cccc1NC(=O)c1ccc(Cl)cc1Cl`, the T/C [9] is reported as 92 % of control, the T/C [10] is reported as 92 % of control and the T/C [11] is reported as 94 % of control. The T/C [12] was 95 % of control, the T/C [13] was 91 % of control and the T/C [14] was 93 % of control.
In the case of `COc1ccc(C2=C(Br)C(=O)C(c3ccc(OC)cc3)=C(Br)C2=O)cc1`, the T/C [10] is reported as 94 % of control, the T/C [12] is reported as 96 % of control and the T/C [14] is reported as 98 % of control.
For `CN1C(c2ccco2)NC(=O)C12CCN(Cc1ccccc1)CC2` (stereo not given), the T/C [7] was 101 % of control and the T/C [8] was 93 % of control.
